Experiments:
[1] = system: KIT phosphorylation in M-07e cells; test: Cell-based KIT phosphorylation in M-07e cells by pKIT ELISA; design: species or system human; details: SCF stimulation
Procedure: Exemplary compounds were tested for ability to inhibit KIT phosphorylation using M-07e cells as monitored by pKIT ELISA. M-07e cells are also represented as M-07E, M-07e, M07-e, M07e, Mo7e, MO7e, M07E and MO7E. Assay procedures and results are described below.
Part I—Procedures for Determining KIT Inhibition inM-07e Cells Using pKTT ELISA Reagents and consumables: • M-07e cells: Initially obtained from Accegen, cat #ABC-TC1313 • p-cKIT Capture ELISA antibody: anti-Human Phospho-CD117/c-kit, R&D cat #DYC3527-5 • Anti-pY-HIRP antibody: R&D cat #DYC3527-5 • 25× wash buffer: Quantikine ELISA Wash Buffer 1, R&D cat #WA126 • PBS: R&D cat #DY006 • 96 well ELISA plates: Clear Polystyrene Microplates, R&D Cat #DY990 • 96 well Tissue culture plates: Corning® 96 Well TC-Treated Microplates, cat #CLS3894 • RPMI medium: ATCC® RPMI-1640 Medium, Cat #30-2001 • FBS: Fetal Bovine Serum, certified, United States Gibco, Thermo-Fisher 16000044 • GM-CSF: Recombinant Human GM-CSF Protein, R&D cat #215-GM • SCF: Recombinant Human SCF Protein, R&D cat #255-SC
• 1. Prepare cells: • a. Culture M-07e cells in RPMI medium+20% serum+GM-CSF+penstrep • To make 50 mL of growth medium • i. 40 mL RPMI media • ii. 10 mL FBS • iii. 10 uL of GM-CSF (100 ug/mL stock) • iv. 0.5 mL pen strep (100×) • b. Harvest cells • c. Re-suspend cells in 100% RPMI media (without serum) to final concentration of 1 million cells/mL • d. Transfer 100 uL of cell solution to 11 columns of a 96 well flat bottom cell culture plate • e. Incubate cells over night at 37 C • 2. Prepare ELISA Plates: • a. Dilute capture antibody to concentration 4 ug/mL in PBS • b. Coat 96 well microplates with 100 uL of capture antibody • c. Seal plates and incubate at RT overnight • d. Wash plates with 300 uL of wash buffer • e. Repeat wash • f. Treat plates with 300 uL of blocking buffer at RT for 1 hour • 3. Addition of compounds: • a. Prepare compound dilutions in RPMI media • i. Top test concentration is 1 uM • ii. Serially dilute compounds 3× for a total of 8 concentrations • b. Add 10 uL of 10× compound dilutions to cells • i. No compounds added in column 11 (for controls) • c. Incubate cells with compounds for 2 hours at 37 C • d. Stimulate cells with SCF for 5 min at concentration of 100 ng/mL (final) • i. In column 11 stimulate top 4 wells. Leave bottom 4 wells unstimulated • e. Remove cell culture media with multichannel pipet • f. Add 110 uL of Lysis buffer to all wells • g. Incubate plates at RT for 30 min while shaking • 4. Transfer 100 uL of cell lysis to each prepared Elisa plate • 5. Add 100 uL of the standard pc-KIT dilutions to the standard wells in column 12 • a. Top concentration=2000 pg/mL • b. 2× dilutions • 6. Incubate ELISA plate with cell lysate for 2 hours at RT • 7. Wash Plate with wash buffer (wash 1) • 8. Repeat wash (wash 2) • 9. […] Add 100 uL of diluted anti-pY-HRP (1/1000 dilution in detection antibody dilution buffer) and incubate 2 hours at RT • 11. Wash plate with wash buffer (wash 1) • 12. Repeat wash (wash 2) • 13. Repeat wash (wash 3) • 14. Add 100 uL of substrate solution to each well • 15. Incubate plates 20 min • Note: Plate development is indicated by aqua color • 16. Add 50 uL of stop solution to each well • 17. Determine optical density on Bitek Synergy Neo2: • a. Make new experiment
Select absorbance 1 set to 450 nm

wtKIT = target: T1, wtKIT (Homo sapiens, UniProt P10721); test: HTRF biochemical assay, wtKIT (phosphorylation of a peptide substrate); details: Table 4
T1 construct: 1888289AM in the reaction mixtures
T1 sequence (P10721 26-976): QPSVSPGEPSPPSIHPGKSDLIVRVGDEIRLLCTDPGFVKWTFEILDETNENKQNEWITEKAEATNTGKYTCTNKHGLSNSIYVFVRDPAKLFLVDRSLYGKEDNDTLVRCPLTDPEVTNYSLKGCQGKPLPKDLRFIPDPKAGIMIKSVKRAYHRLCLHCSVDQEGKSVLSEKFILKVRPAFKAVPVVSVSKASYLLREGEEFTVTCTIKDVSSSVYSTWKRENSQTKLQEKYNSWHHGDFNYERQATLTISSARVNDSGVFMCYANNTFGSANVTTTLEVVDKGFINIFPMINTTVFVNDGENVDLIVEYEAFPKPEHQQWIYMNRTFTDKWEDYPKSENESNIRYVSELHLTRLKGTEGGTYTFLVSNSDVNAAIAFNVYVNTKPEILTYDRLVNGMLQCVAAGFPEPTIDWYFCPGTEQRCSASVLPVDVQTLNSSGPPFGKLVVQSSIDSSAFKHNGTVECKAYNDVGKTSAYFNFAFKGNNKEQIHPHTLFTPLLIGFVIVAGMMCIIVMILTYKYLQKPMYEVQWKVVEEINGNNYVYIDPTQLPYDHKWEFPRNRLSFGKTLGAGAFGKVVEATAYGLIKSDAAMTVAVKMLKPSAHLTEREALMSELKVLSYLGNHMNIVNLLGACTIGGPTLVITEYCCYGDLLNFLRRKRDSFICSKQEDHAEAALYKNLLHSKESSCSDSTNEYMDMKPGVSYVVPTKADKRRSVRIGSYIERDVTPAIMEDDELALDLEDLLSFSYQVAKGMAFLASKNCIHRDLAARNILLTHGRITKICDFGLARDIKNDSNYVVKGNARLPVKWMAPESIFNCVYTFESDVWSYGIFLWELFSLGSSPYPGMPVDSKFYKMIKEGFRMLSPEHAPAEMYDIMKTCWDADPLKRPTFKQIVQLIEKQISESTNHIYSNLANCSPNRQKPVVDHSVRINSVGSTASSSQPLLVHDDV
Outline: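 wtKIT (5.0 nM) phosphorylating 1 µM FAM-labelled peptide with 400 µM ATP and 10 mM MnCl2 in 100 mM HEPES pH 7.5, 1% DMSO, 3 h at 25 °C. EDTA quench; phosphopeptide detected with anti-phosphotyrosine antibody by HTRF. Enzyme titrated for 10-20% substrate conversion.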

CSF-1R = target: T2, CSF-1R (Homo sapiens, UniProt P07333); test: HTRF biochemical assay, CSF-1R; details: Table 4
T2 construct: purchased Invitrogen PV3249 (lot 662393N)
T2 sequence (P07333 20-972): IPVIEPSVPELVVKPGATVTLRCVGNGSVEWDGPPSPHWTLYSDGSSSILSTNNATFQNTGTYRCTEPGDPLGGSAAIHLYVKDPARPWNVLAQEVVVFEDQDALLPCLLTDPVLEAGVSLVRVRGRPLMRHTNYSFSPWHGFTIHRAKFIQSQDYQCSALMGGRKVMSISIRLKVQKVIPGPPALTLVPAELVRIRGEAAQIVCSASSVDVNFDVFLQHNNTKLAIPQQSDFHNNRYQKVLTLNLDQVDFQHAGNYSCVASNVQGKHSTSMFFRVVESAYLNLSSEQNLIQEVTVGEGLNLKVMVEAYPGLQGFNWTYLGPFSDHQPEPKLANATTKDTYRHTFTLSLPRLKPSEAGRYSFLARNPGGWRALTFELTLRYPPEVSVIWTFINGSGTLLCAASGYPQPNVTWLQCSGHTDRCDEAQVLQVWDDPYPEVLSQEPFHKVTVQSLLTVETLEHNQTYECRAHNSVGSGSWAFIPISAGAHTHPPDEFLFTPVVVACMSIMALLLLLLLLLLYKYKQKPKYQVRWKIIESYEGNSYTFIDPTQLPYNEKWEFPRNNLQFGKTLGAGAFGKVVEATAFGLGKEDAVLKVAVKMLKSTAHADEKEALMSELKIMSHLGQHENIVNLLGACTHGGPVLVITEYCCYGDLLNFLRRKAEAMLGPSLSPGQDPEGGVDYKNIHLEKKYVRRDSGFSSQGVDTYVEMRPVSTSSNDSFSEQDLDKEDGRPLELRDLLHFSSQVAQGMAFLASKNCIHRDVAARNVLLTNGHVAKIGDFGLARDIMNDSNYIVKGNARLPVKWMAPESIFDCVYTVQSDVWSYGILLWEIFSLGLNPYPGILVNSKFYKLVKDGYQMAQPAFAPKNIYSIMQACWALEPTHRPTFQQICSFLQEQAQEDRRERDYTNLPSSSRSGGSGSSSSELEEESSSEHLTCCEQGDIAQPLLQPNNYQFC
Procedure: (§1) Exemplary compounds were tested for ability to inhibit the phosphorylation of a peptide substrate by the tyrosine kinase wt KIT, PDGFRα, or CSF-1R. Assay procedures and results are described below.
(§2) Enzyme, substrate, and cofactors (ATP and Mn^2+) are combined in a well of a microtiter plate and incubated for 3 hours at 25° C. At the end of the incubation, the reaction is quenched by the addition of an EDTA-containing buffer.
(§3) The substrate used in the CSF-1R and PDGFRα assay is FAM-[…]-CONH2 (FAM is carboxyfluorescein). Peptide should be >95% purity. The substrate for the KIT assay is FAM-[…]-NH2.
(§4) • 1. To a well of a 384-wellplate add 5 μL of 2× enzyme buffer (or control). • 2. Add 100 nL of 100× compound. Enzyme and compound may be pre-incubated at this time if desired. • 3. Add 5 μL of 2× substrate buffer. • 4. Incubate plate at 25° C. for 3 hours. • 5. Add 10 uL of anti-phosphotyrosine antibody buffer. • 6. Read plate in BioTek Synergy Reader. Reaction Conditions for wtKIT Assay

PDGFRα = target: T3, PDGFRα (Homo sapiens, UniProt P16234); test: HTRF biochemical assay, PDGFRα; details: Table 4, read-out: PDFGRα Biochemical IC50 avg
T3 construct: purchased Millipore 14-467 (lot 26321_ACTI)
T3 sequence (P16234 24-1089): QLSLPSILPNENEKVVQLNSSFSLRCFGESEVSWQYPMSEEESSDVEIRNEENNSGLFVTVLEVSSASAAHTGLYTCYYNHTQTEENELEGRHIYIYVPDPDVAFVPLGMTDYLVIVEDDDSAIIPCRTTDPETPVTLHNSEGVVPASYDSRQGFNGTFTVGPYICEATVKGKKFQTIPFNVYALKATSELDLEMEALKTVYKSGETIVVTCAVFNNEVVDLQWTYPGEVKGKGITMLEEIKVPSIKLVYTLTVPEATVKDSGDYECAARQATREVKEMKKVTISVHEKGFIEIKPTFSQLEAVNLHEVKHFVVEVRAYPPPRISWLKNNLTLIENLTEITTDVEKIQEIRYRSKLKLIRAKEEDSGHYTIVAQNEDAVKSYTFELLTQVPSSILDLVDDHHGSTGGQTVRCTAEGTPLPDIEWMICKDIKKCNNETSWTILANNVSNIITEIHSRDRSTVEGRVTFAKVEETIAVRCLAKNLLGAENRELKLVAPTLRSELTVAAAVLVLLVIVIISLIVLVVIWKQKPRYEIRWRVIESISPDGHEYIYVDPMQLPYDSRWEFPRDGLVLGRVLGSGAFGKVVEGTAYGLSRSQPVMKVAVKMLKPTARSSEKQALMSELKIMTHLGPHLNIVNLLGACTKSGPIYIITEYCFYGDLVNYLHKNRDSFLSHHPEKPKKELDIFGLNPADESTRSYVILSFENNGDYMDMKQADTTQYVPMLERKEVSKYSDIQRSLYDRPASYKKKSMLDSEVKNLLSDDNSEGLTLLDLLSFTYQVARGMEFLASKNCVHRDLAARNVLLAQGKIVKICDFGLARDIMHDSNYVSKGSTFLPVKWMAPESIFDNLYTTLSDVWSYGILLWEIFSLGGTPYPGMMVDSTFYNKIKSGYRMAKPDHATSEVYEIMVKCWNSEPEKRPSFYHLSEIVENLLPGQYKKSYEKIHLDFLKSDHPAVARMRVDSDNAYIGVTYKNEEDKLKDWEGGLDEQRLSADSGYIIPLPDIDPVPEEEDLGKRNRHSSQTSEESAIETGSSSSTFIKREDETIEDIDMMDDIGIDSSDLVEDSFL
Procedure: as §1, §2, §3, §4

Kinetic solubility assay = assay type: physicochemical; details: kinetic solubility, 50 mM PB (pH 7.4), shaken 24 hours at RT
Outline: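 Test compounds from 10 mM DMSO stock were diluted in 50 mM phosphate buffer, pH 7.4, and shaken for 24 h at RT. After PTFE filtration and centrifugation, filtrate concentration was quantified by UPLC-UV/HPLC-UV against a standard curve.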

Row | Structure (SMILES) | IC50 [1] | IC50 (wtKIT) | IC50 (CSF-1R) | IC50 (PDGFRα) | Solubility (μM) (Kinetic solubility assay)
1 | COc1ccc2ncc(C(=O)Nc3cc(-c4noc(C[C@H](C)O)n4)ccc3C)n2c1 [Compound I-89] | ≤ 50 nM | ≤ 50 nM | 50 to 500 nM | 500 to 5000 nM | 
2 | Cc1ccc(-c2noc([C@H]3C[C@@H]3F)n2)cc1NC(=O)c1cnc2cc(F)ccn12 [Compound I-103] | 50 to 500 nM | ≤ 50 nM | ≤ 50 nM | 500 to 5000 nM | **** (a solubility less than or equal to 2 μM)
3 | COc1ccn2c(C(=O)Nc3cc(-c4noc(C[C@@H](C)O)n4)ccc3C)cnc2c1 [Compound I-95] | ≤ 50 nM | ≤ 50 nM | 50 to 500 nM | 500 to 5000 nM | **** (a solubility less than or equal to 2 μM)
4 | Cc1ccc(-c2noc([C@H]3C[C@@H]3F)n2)cc1NC(=O)c1cnc2ccc(Cl)cn12 [Compound I-102] | ≤ 50 nM | ≤ 50 nM | ≤ 50 nM | 500 to 5000 nM | **** (a solubility less than or equal to 2 μM)
5 | Cc1ccc(-c2noc(C(O)C3CC3)n2)cc1NC(=O)c1cnc2ccccn12 (racemic) [Compound I-78] | ≤ 50 nM | ≤ 50 nM | 50 to 500 nM | 500 to 5000 nM | **** (a solubility less than or equal to 2 μM)
6 | Cc1ccc(-c2noc([C@H]3C[C@@H]3F)n2)cc1NC(=O)c1cnn2cc(F)ccc12 [Compound I-101] | 50 to 500 nM | ≤ 50 nM | 50 to 500 nM | 5000 to 30000 nM | **** (a solubility less than or equal to 2 μM)
7 | COC(=O)N1CC(c2nc(-c3ccc(C)c(NC(=O)c4cnc5cc(CO)ccn45)c3)no2)C1 [Compound I-120] | ≤ 50 nM | 50 to 500 nM | 5000 to 30000 nM | 5000 to 30000 nM | **** (a solubility less than or equal to 2 μM)
8 | Cc1ccc2ncc(C(=O)Nc3cc(-c4noc([C@H]5C[C@@H]5F)n4)ccc3C)n2c1 [Compound I-108] | ≤ 50 nM | ≤ 50 nM | ≤ 50 nM | 50 to 500 nM | **** (a solubility less than or equal to 2 μM)
9 | Cc1ccc(-c2noc([C@H]3C[C@@H]3F)n2)cc1NC(=O)c1cnc2ccc(C3CNC3)cn12 [Compound I-106] | 50 to 500 nM | ≤ 50 nM | ≤ 50 nM | 50 to 500 nM | * (a solubility greater than 50 μM)
10 | Cc1ccc(-c2noc(CC(O)C(F)F)n2)cc1NC(=O)c1cnn2ccccc12 (single isomer, unassigned) [Compound I-75] | ≤ 50 nM | ≤ 50 nM | 50 to 500 nM | 500 to 5000 nM | **** (a solubility less than or equal to 2 μM)
11 | Cc1ccc(-c2noc(C3CC3F)n2)cc1NC(=O)c1cnc2cc(COC3CC(O)C3)ccn12 (mixture of isomers) [Compound I-72] | ≤ 50 nM | ≤ 50 nM | ≤ 50 nM | 500 to 5000 nM | **** (a solubility less than or equal to 2 μM)
12 | Cc1ccc(-c2noc([C@H]3C[C@@H]3F)n2)cc1NC(=O)c1cnc2ccc(OC(C)C)cn12 [Compound I-86] | ≤ 50 nM | ≤ 50 nM | ≤ 50 nM | 50 to 500 nM | **** (a solubility less than or equal to 2 μM)
13 | Cc1ccc(-c2noc(C[C@@H](C)O)n2)cc1NC(=O)c1cnn2ccccc12 [Compound I-81] | ≤ 50 nM | 50 to 500 nM | 500 to 5000 nM | 5000 to 30000 nM | ** (a solubility greater than 10 μM and less than or equal to 50 μM)
14 | Cc1ccc(-c2noc(C(O)C3CCC3)n2)cc1NC(=O)c1cnc2ccccn12 (racemic) [Compound I-79] | ≤ 50 nM | ≤ 50 nM | 50 to 500 nM | 50 to 500 nM | **** (a solubility less than or equal to 2 μM)
15 | Cc1ccc(-c2noc(C(F)C3CC3)n2)cc1NC(=O)c1cnc2ccccn12 (racemic) [Compound I-77] | ≤ 50 nM | ≤ 50 nM | 50 to 500 nM | 5000 to 30000 nM | **** (a solubility less than or equal to 2 μM)
16 | Cc1ccc(-c2noc(C3CC(F)(F)C3)n2)cc1NC(=O)c1cnc2cc(CO)ccn12 [Compound I-105] | 50 to 500 nM | ≤ 50 nM | ≤ 50 nM | 500 to 5000 nM | **** (a solubility less than or equal to 2 μM)
17 | Cc1ccc(-c2noc(C3CC3F)n2)cc1NC(=O)c1cnc2cc(COC3CC(O)C3)ccn12 (stereo not drawn) [Compound I-85] | ≤ 50 nM | ≤ 50 nM | ≤ 50 nM | 500 to 5000 nM | **** (a solubility less than or equal to 2 μM)
